Assay results taken from patent publication US8048879B2, “Substituted 4,5,6,7-tetrahydro-isoxazolo[4,5-c]pyridine compounds and use thereof for producing medicaments” (Gruenenthal GmbH, priority 2005, dated 2011).

Target: T1, 5-HT transporter (Rattus norvegicus, UniProt P31652)
T1 construct: from tissue; host or cells: rat brain (medulla and pons), synaptosomes, P2 fraction
Experiment: 5-HT uptake inhibition, synaptosomes from rat brain (medulla and pons)
Assay type: biochemical
Conditions: not given
Source text: b) Method for Determining Noradrenalin and 5-HT Uptake Inhibition:
Synaptosomes from rat brain regions are freshly isolated for in vitro studies, as described in the publication “The isolation of nerve endings from brain” by E. G. Gray and V. P. Whittaker, J. Anatomy 96, pages 79-88, 1962. The corresponding literature description is hereby introduced as a reference and is deemed to be part of the disclosure.
The tissue (hypothalamus for the determination of noradrenalin uptake inhibition and medulla and pons for the determination of 5-HT uptake inhibition) is homogenised in ice-cooled 0.32 M sucrose (100 mg of tissue/1 mL) in a glass homogeniser with Teflon pestle using five complete up and down strokes at 840 revolutions/minute.
The homogenate is centrifuged at 4° C. for 10 minutes at 1000 g. After subsequent centrifugation at 17000 g for 55 minutes, the synaptosomes (P2 fraction) are obtained, which are resuspended in 0.32 M […] (0.5 mL/100 mg of original weight).
The particular uptake is measured in a 96-well microtitre plate. The volume is 250 μL and the incubation proceeds at room temperature (approx. 20-25° C.) under an O2 atmosphere.
The incubation time is 7.5 minutes for [^3H]-NA and 5 minutes for [^3H]-5-HT. The 96 samples are then filtered through a Unifilter GF/B® microtitre plate (Packard) and washed with 200 mL of incubated buffer using a “Brabdel MPXRI-96T Cell-Harvester”. The Unifilter GF/B plate is dried for 1 hour at 55° C. The plate is then sealed with a Back Seal® (Packard) and 35 μL of scintillation fluid are added per well (Ultima Gold®, Packard). After sealing with a top Seal® (Packard) and establishing an equilibrium (around 5 hours), radioactivity is determined in a “Trilux 1450 Microbeta” (Wallac).
The quantity of protein used in the above determination corresponds to the values known from the literature, as for example described in “Protein measurement with the folin phenol reagent”, Lowry et al., J. Biol. Chem., 193, 265-275, 1951.
A detailed description of the method may additionally be found in the literature, for example in M. Ch. Frink, H.-H. Hennies, W. Engelberger, M. Haurand and B. Wilffert (1996) Arzneim.-Forsch./Drug Res. 46 (III), 11, 1029-1036.
The following characteristics were determined for the NA or 5-HT transporter: […]

T1 sequence (P31652 whole entry): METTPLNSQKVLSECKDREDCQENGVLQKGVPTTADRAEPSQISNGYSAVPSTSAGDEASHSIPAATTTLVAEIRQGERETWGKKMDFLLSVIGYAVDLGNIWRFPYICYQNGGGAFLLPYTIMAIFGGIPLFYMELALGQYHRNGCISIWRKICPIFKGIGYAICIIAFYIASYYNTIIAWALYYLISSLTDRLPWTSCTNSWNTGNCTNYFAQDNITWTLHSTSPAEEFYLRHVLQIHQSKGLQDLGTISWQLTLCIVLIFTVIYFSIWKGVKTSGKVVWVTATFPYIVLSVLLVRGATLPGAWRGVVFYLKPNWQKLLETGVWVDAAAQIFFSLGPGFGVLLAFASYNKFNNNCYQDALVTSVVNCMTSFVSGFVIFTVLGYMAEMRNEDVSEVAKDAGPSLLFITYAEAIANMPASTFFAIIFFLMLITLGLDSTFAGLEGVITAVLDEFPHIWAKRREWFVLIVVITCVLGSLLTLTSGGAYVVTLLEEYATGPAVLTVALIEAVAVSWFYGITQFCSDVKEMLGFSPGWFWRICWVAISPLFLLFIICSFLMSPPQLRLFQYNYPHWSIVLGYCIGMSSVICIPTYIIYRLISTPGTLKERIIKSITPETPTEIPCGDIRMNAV

Structure (SMILES) | inhibition at 10 µM | 5-HT uptake (rat), 10 μM, % inhibition
O=C(NCCc1ccccc1Cl)c1noc2c1CN(S(=O)(=O)c1cc(Cl)ccc1Cl)CC2 [Example 52, 5-(2,5-dichloro-benzenesulfonyl)-4,5,6,7-tetrahydro-isoxazolo[4,5-c]pyridine-3-carboxylic acid [2-(2-chlorophenyl)-ethyl] amide] | 83% | 
COc1ccc(S(=O)(=O)N2CCc3onc(C(=O)Nc4ccc(C)cc4)c3C2)cc1 [Example 53, 5-(4-methoxy-benzenesulfonyl)-4,5,6,7-tetrahydro-isoxazolo[4,5-c]pyridine-3-carboxylic acid p-tolyl amide] | 89% | 
O=C(NCc1ccc(F)cc1)c1noc2c1CN(C(=O)COc1ccccc1)CC2 [Example 54, 5-(2-phenoxy-acetyl)-4,5,6,7-tetrahydro-isoxazolo[4,5-c]pyridine-3-carboxylic acid 4-fluorobenzyl amide] | 84% | 
COc1ccc(S(=O)(=O)N2CCc3onc(C(=O)N4CCN(C(C)=O)CC4)c3C2)cc1 [Example 55, 1-{4-[5-(4-methoxy-benzenesulfonyl)-4,5,6,7-tetrahydro-isoxazolo[4,5-c]pyridine-3-carbonyl]-piperazin-1-yl}-ethanone] | 68% | 
O=C(NCCN1CCOCC1)c1noc2c1CN(S(=O)(=O)c1cccs1)CC2 [Example 57, 5-(thiophene-2-sulfonyl)-4,5,6,7-tetrahydro-isoxazolo[4,5-c]pyridine-3-carboxylic acid (2-morpholin-4-yl-ethyl) amide] | 63% | 
COc1ccc(C(=O)N2CCc3onc(C(=O)NCCN(C)C)c3C2)cc1 [Example 58, 5-(4-methoxy-benzoyl)-4,5,6,7-tetrahydro-isoxazolo[4,5-c]pyridine-3-carboxylic acid (2-dimethylamino-ethyl) amide] | 81% | 
CC1C(NC(=O)c2noc3c2CN(S(=O)(=O)N(C)C)CC3)CC2CC1C2(C)C (stereo not shown) [Example 60, 5-dimethylsulfamoyl-4,5,6,7-tetrahydro-isoxazolo[4,5-c]pyridine-3-carboxylic acid (2,6,6-trimethyl-bicyclo[3.1.1]hept-3-yl) amide] | 81% | 
O=C(NC1CCc2ccccc21)c1noc2c1CN(S(=O)(=O)c1ccccc1)CC2 (stereo not shown) [Example 61, 5-benzenesulfonyl-4,5,6,7-tetrahydro-isoxazolo[4,5-c]pyridine-3-carboxylic acid indan-1-yl amide] | 64% | 
COCCCNC(=O)c1noc2c1CN(S(=O)(=O)c1ccc(OC)cc1)CC2 [Example 62, 5-(4-methoxy-benzenesulfonyl)-4,5,6,7-tetrahydro-isoxazolo[4,5-c]pyridine-3-carboxylic acid (3-methoxy-propyl) amide] | 67% | 
O=C(NCCN1CCCC1)c1noc2c1CN(C(=O)COCc1ccccc1)CC2 [Example 64, 5-(2-benzyloxy-acetyl)-4,5,6,7-tetrahydro-isoxazolo[4,5-c]pyridine-3-carboxylic acid (2-pyrrolidin-1-yl-ethyl) amide] | 77% | 
Cc1ccc(N2CCN(C(=O)c3noc4c3CN(S(=O)(=O)c3cc(Cl)ccc3Cl)CC4)CC2)c(C)c1 [Example 65, [5-(2,5-dichloro-benzenesulfonyl)-4,5,6,7-tetrahydro-isoxazolo[4,5-c]pyridin-3-yl]-[4-(2,4-dimethyl-phenyl)-piperazin-1-yl]-methanone] | 88% | 
C=CCCC(=O)N1CCc2onc(C(=O)NCC3CC3)c2C1 [Example 66, 5-Pent-4-enoyl-4,5,6,7-tetrahydro-isoxazolo[4,5-c]pyridine-3-carboxylic acid cyclopropylmethyl amide] | 62% | 
CC(C)C(NC(=O)c1noc2c1CN(S(=O)(=O)c1cccc(C(F)(F)F)c1)CC2)C(=O)OC(C)(C)C (stereo not shown) [Example 67, 3-methyl-2-{[5-(3-trifluoromethyl-benzenesulfonyl)-4,5,6,7-tetrahydro-isoxazolo[4,5-c]pyridine-3-carbonyl]-amino}-butanoic acid tert-butyl ester] | 73% | 
O=C(NCc1ccc(Cl)cc1Cl)c1noc2c1CN(S(=O)(=O)c1cccc(C(F)(F)F)c1)CC2 [Example 69, 5-(3-trifluoromethyl-benzenesulfonyl)-4,5,6,7-tetrahydro-isoxazolo[4,5-c]pyridine-3-carboxylic acid 2,4-dichloro-benzyl amide] | 64% | 
CN(C)S(=O)(=O)N1CCc2onc(C(=O)N(CCC#N)Cc3cccnc3)c2C1 [Example 70, 5-dimethylsulfamoyl-4,5,6,7-tetrahydro-isoxazolo[4,5-c]pyridine-3-carboxylic acid (2-cyano-ethyl)-pyridin-3-ylmethyl-amide] | 63% | 
O=C(NCCN1CCCC1)c1noc2c1CN(C(=O)CC1CCCC1)CC2 [Example 71, 5-(2-cyclopentyl-acetyl)-4,5,6,7-tetrahydro-isoxazolo[4,5-c]pyridine-3-carboxylic acid (2-pyrrolidin-1-yl-ethyl) amide] | 69% | 
Cc1nn(-c2ccccc2)nc1C(=O)N1CCc2onc(C(=O)NCc3ccc(F)cc3)c2C1 [Example 72, 5-(5-methyl-2-phenyl-2H-[1,2,3]triazole-4-carbonyl)-4,5,6,7-tetrahydro-isoxazolo[4,5-c]pyridine-3-carboxylic acid 4-fluorobenzyl amide] | 70% | 
CCCCC(CC)CNC(=O)c1noc2c1CN(S(=O)(=O)c1cccc(C(F)(F)F)c1)CC2 (stereo not shown) [Example 73] |  | 63%
Cc1ccc(C(=O)N2CCc3onc(C(=O)NCCN(C)C)c3C2)c(F)c1F [Example 74] |  | 62%
O=C(NCc1cccc(Cl)c1Cl)c1noc2c1CN(S(=O)(=O)c1ccc(OC(F)(F)F)cc1)CC2 [Example 75, 5-(4-trifluoromethoxy-benzenesulfonyl)-4,5,6,7-tetrahydro-isoxazolo[4,5-c]pyridine-3-carboxylic acid 2,3-dichloro-benzyl amide] | 65% | 
CN(C)S(=O)(=O)N1CCc2onc(C(=O)NCCc3ccc(Cl)cc3)c2C1 [Example 76, 5-dimethylsulfamoyl-4,5,6,7-tetrahydro-isoxazolo[4,5-c]pyridine-3-carboxylic acid [2-(4-chlorophenyl)-ethyl] amide] | 63% | 
O=C(NCCN1CCCC1)c1noc2c1CN(C(=O)c1ccc(Cl)nc1)CC2 [Example 77, 5-(6-chloro-pyridine-3-carbonyl)-4,5,6,7-tetrahydro-isoxazolo[4,5-c]pyridine-3-carboxylic acid (2-pyrrolidin-1-yl-ethyl) amide] | 62% | 
COC(=O)CCCC(=O)N1CCc2onc(C(=O)NCc3ccc(F)cc3)c2C1 [Example 78, 5-[3-(4-fluoro-benzylcarbamoyl)-6,7-dihydro-4H-isoxazolo[4,5-c]pyridin-5-yl]-5-oxo-pentanoic acid methyl ester] | 70% | 
COc1ccc(CC(=O)N2CCc3onc(C(=O)NCc4ccccc4)c3C2)cc1 [Example 79, 5-[2-(4-methoxyphenyl)-acetyl]-4,5,6,7-tetrahydro-isoxazolo[4,5-c]pyridine-3-carboxylic acid benzyl amide] | 71% | 
CN(CCCNC(=O)c1noc2c1CN(S(=O)(=O)c1ccc(OC(F)(F)F)cc1)CC2)c1ccccc1 [Example 80, 5-(4-trifluoromethoxy-benzenesulfonyl)-4,5,6,7-tetrahydro-isoxazolo[4,5-c]pyridine-3-carboxylic acid [3-(methylphenyl-amino)-propyl] amide] | 65% | 
Cc1ccc(S(=O)(=O)N2CCc3onc(C(=O)N4CCN(CCC5CCCCC5)CC4)c3C2)cc1 [Example 82, [4-(2-cyclohexyl-ethyl)-piperazin-1-yl]-[5-(toluene-4-sulfonyl)-4,5,6,7-tetrahydro-isoxazolo[4,5-c]pyridin-3-yl]-methanone] | 62% | 
O=C(c1noc2c1CN(S(=O)(=O)c1cc(Cl)ccc1Cl)CC2)N1CCC(CNC(=O)C(F)(F)F)CC1 [Example 83, N-{1-[5-(2,5-dichloro-benzenesulfonyl)-4,5,6,7-tetrahydro-isoxazolo[4,5-c]pyridine-3-carbonyl]-piperidin-4-ylmethyl}-2,2,2-trifluoroacetamide] | 61% | 

Same assay, conditions: 10 µM

Structure (SMILES) | 5-HT uptake (rat), 10 μM, % inhibition
Cc1ccc(S(=O)(=O)N2CCc3onc(C(=O)NCc4ccc(S(N)(=O)=O)cc4)c3C2)cc1 [Example 56, 5-(toluene-4-sulfonyl)-4,5,6,7-tetrahydro-isoxazolo[4,5-c]pyridine-3-carboxylic acid 4-sulfamoyl-benzyl amide] | 96%
